How the values were obtained:
Type in all cases: functional, cell-based
A549 = experiment: Cytotoxicity against human A549 cells assessed as reduction in cell viability by CCK-8 assay
PC-3M = experiment: Cytotoxicity against human PC-3M cells assessed as reduction in cell viability by CCK-8 assay
PANC-1 = experiment: Cytotoxicity against human PANC-1 cells assessed as reduction in cell viability by CCK-8 assay
HepG2 = experiment: Cytotoxicity against human HepG2 cells assessed as reduction in cell viability by CCK-8 assay
MCF7 = experiment: Cytotoxicity against human MCF7 cells assessed as reduction in cell viability by CCK-8 assay

Row | SMILES | IC50 (A549) | IC50 (PC-3M) | IC50 (PANC-1) | IC50 (HepG2) | IC50 (MCF7)
1 | C=C(C)[C@@H]1CC[C@]2(C(=O)OCCCCCCn3ccnc3)CC[C@]3(C)[C@H](C[C@@H](O)[C@@H]4[C@@]5(C)C(CC(=O)OC)OC(C)(C)C5CC[C@]43C)[C@@H]12 (stereo not given in full) | 26.1 µM | 19.7 µM | 25.9 µM | 15.8 µM | 45.5 µM
2 | C=C(C)[C@@H]1CC[C@]2(C(=O)OCCCCCCn3cc(CCN)c4ccccc43)CC[C@]3(C)[C@H](C[C@@H](O)[C@@H]4[C@@]5(C)C(CC(=O)OC)OC(C)(C)C5CC[C@]43C)[C@@H]12 (stereo not given in full) | 5.97 µM | 3.99 µM | 7.06 µM | 1.91 µM | 24.5 µM
3 | C=C(C)[C@@H]1CC[C@]2(C(=O)OCCCCCCCCCCn3cncn3)CC[C@]3(C)[C@H](C[C@H]4OC(=O)C[C@@H](O)[C@]5(C)[C@@H]4[C@@]3(C)CC[C@H]5C(=C)C)[C@@H]12 | 29.4 µM | 19.9 µM | 36.4 µM | 14.6 µM | 46.2 µM
4 | C=C(C)[C@@H]1CC[C@]2(C(=O)OCCCCn3cnc(C)c3)CC[C@]3(C)[C@H](C[C@@H](O)[C@@H]4[C@@]5(C)C(CC(=O)OC)OC(C)(C)C5CC[C@]43C)[C@@H]12 (stereo not given in full) | 35.4 µM | 25 µM | 38.9 µM | 19.9 µM | 65.6 µM
5 | C=C(C)[C@@H]1CC[C@]2(C(=O)OCCCCCBr)CC[C@]3(C)[C@H](C[C@H]4OC(=O)C[C@@H](O)[C@]5(C)[C@@H]4[C@@]3(C)CC[C@H]5C(=C)C)[C@@H]12 | 19.8 µM | 14.5 µM | 43.1 µM | 14.3 µM | 56.1 µM
6 | C=C(C)[C@@H]1CC[C@]2(C(=O)OCCCCCn3ccnc3)CC[C@]3(C)[C@H](C[C@@H](O)[C@@H]4[C@@]5(C)C(CC(=O)OC)OC(C)(C)C5CC[C@]43C)[C@@H]12 (stereo not given in full) | 34.9 µM | 30.6 µM | 50 µM | 24.6 µM | 65.1 µM
7 | C=C(C)[C@@H]1CC[C@]2(C(=O)OCCCn3ccnc3CC)CC[C@]3(C)[C@H](C[C@@H](O)[C@@H]4[C@@]5(C)C(CC(=O)OC)OC(C)(C)C5CC[C@]43C)[C@@H]12 (stereo not given in full) | 27.4 µM | 24.9 µM | 47.7 µM | 18.9 µM | 66.2 µM
8 | C=C(C)[C@@H]1CC[C@]2(C(=O)OCCCn3cc(CCN)c4ccccc43)CC[C@]3(C)[C@H](C[C@@H](O)[C@@H]4[C@@]5(C)C(CC(=O)OC)OC(C)(C)C5CC[C@]43C)[C@@H]12 (stereo not given in full) | 7.67 µM | 7.6 µM | 7.04 µM | 2.51 µM | 8.05 µM
9 | C=C(C)[C@@H]1CC[C@]2(C(=O)OCCCCBr)CC[C@]3(C)[C@H](C[C@@H](O)[C@@H]4[C@@]5(C)C(CC(=O)OC)OC(C)(C)C5CC[C@]43C)[C@@H]12 (stereo not given in full) | 46 µM | 53.3 µM | 72.8 µM | 27.6 µM | 82 µM
10 | C=C(C)[C@@H]1CC[C@]2(C(=O)OCCCCn3cc(CCN)c4ccccc43)CC[C@]3(C)[C@H](C[C@H]4OC(=O)C[C@@H](O)[C@]5(C)[C@@H]4[C@@]3(C)CC[C@H]5C(=C)C)[C@@H]12 | 6.72 µM | 6.64 µM | 8.73 µM | 1.02 µM | 11.7 µM
11 | C=C(C)[C@@H]1CC[C@]2(C(=O)OCCCCCBr)CC[C@]3(C)[C@H](C[C@@H](O)[C@@H]4[C@@]5(C)C(CC(=O)OC)OC(C)(C)C5CC[C@]43C)[C@@H]12 (stereo not given in full) | 40.6 µM | 44.1 µM | 54.9 µM | 27.7 µM | 80 µM
12 | C=C(C)[C@@H]1CC[C@]2(C(=O)OCCCCCn3cnc(C)c3)CC[C@]3(C)[C@H](C[C@@H](O)[C@@H]4[C@@]5(C)C(CC(=O)OC)OC(C)(C)C5CC[C@]43C)[C@@H]12 (stereo not given in full) | 28.5 µM | 30.1 µM | 33.2 µM | 14.1 µM | 60.8 µM
13 | C=C(C)[C@@H]1CC[C@]2(C(=O)OCCCCCCn3cncn3)CC[C@]3(C)[C@H](C[C@@H](O)[C@@H]4[C@@]5(C)C(CC(=O)OC)OC(C)(C)C5CC[C@]43C)[C@@H]12 (stereo not given in full) | 52.7 µM | 27.4 µM | 59.8 µM | 37.8 µM | 79.9 µM
14 | C=C(C)[C@@H]1CC[C@]2(C(=O)OCCCCCn3ccnc3)CC[C@]3(C)[C@H](C[C@H]4OC(=O)C[C@@H](O)[C@]5(C)[C@@H]4[C@@]3(C)CC[C@H]5C(=C)C)[C@@H]12 | 25.2 µM | 11.8 µM | 32.3 µM | 16.1 µM | 45.6 µM
15 | C=C(C)[C@@H]1CC[C@]2(C(=O)OCCCCBr)CC[C@]3(C)[C@H](C[C@H]4OC(=O)C[C@@H](O)[C@]5(C)[C@@H]4[C@@]3(C)CC[C@H]5C(=C)C)[C@@H]12 | 89 µM | 82.2 µM | 200 µM | 124 µM | > 200 µM
16 | C=C(C)[C@@H]1CC[C@]2(C(=O)OCCCCn3ccnc3C)CC[C@]3(C)[C@H](C[C@@H](O)[C@@H]4[C@@]5(C)C(CC(=O)OC)OC(C)(C)C5CC[C@]43C)[C@@H]12 (stereo not given in full) | 31.4 µM | 36 µM | 48.3 µM | 21.7 µM | 67.3 µM
17 | C=C(C)[C@@H]1CC[C@]2(C(=O)OCCCCCCn3ccnc3CC)CC[C@]3(C)[C@H](C[C@@H](O)[C@@H]4[C@@]5(C)C(CC(=O)OC)OC(C)(C)C5CC[C@]43C)[C@@H]12 (stereo not given in full) | 24.1 µM | 19.6 µM | 18.5 µM | 16.9 µM | 34.5 µM
18 | C=C(C)[C@@H]1CC[C@]2(C(=O)OCCCBr)CC[C@]3(C)[C@H](C[C@H]4OC(=O)C[C@@H](O)[C@]5(C)[C@@H]4[C@@]3(C)CC[C@H]5C(=C)C)[C@@H]12 | 136 µM | 109 µM | > 200 µM | > 200 µM | > 200 µM
19 | C=C(C)[C@@H]1CC[C@]2(C(=O)OCCCCn3cncn3)CC[C@]3(C)[C@H](C[C@@H](O)[C@@H]4[C@@]5(C)C(CC(=O)OC)OC(C)(C)C5CC[C@]43C)[C@@H]12 (stereo not given in full) | 42.4 µM | 45.3 µM | 58.6 µM | 26.1 µM | 75.2 µM
20 | C=C(C)[C@@H]1CC[C@]2(C(=O)OCCCCCn3cncn3)CC[C@]3(C)[C@H](C[C@H]4OC(=O)C[C@@H](O)[C@]5(C)[C@@H]4[C@@]3(C)CC[C@H]5C(=C)C)[C@@H]12 | 18.7 µM | 54.3 µM | 41.6 µM | 38.3 µM | 108 µM
21 | C=C(C)[C@@H]1CC[C@]2(C(=O)OCCCCn3ccnc3)CC[C@]3(C)[C@H](C[C@H]4OC(=O)C[C@@H](O)[C@]5(C)[C@@H]4[C@@]3(C)CC[C@H]5C(=C)C)[C@@H]12 | 32.7 µM | 28.2 µM | 50.1 µM | 20.9 µM | 84.4 µM
22 | C=C(C)[C@@H]1CC[C@]2(C(=O)OCCCCCCCCCCBr)CC[C@]3(C)[C@H](C[C@@H](O)[C@@H]4[C@@]5(C)C(CC(=O)OC)OC(C)(C)C5CC[C@]43C)[C@@H]12 (stereo not given in full) | 34.6 µM | 16.6 µM | 15.1 µM | 15.1 µM | 88.5 µM
23 | C=C(C)[C@@H]1CC[C@]2(C(=O)OCCCn3ccnc3)CC[C@]3(C)[C@H](C[C@H]4OC(=O)C[C@@H](O)[C@]5(C)[C@@H]4[C@@]3(C)CC[C@H]5C(=C)C)[C@@H]12 | 55.5 µM | 24.7 µM | 89.1 µM | > 200 µM | 48.6 µM
24 | C=C(C)[C@@H]1CC[C@]2(C(=O)OCCCCCCn3ccnc3CC)CC[C@]3(C)[C@H](C[C@H]4OC(=O)C[C@@H](O)[C@]5(C)[C@@H]4[C@@]3(C)CC[C@H]5C(=C)C)[C@@H]12 | 14.6 µM | 12.9 µM | 17.5 µM | 3.59 µM | 48.8 µM
25 | C=C(C)[C@@H]1CC[C@]2(C(=O)OCCCCCCn3cncn3)CC[C@]3(C)[C@H](C[C@H]4OC(=O)C[C@@H](O)[C@]5(C)[C@@H]4[C@@]3(C)CC[C@H]5C(=C)C)[C@@H]12 | 24.6 µM | 56 µM | 19.5 µM | 23.8 µM | 103 µM
26 | C=C(C)[C@@H]1CC[C@]2(C(=O)OCCCCCCCCCCn3ccnc3C)CC[C@]3(C)[C@H](C[C@H]4OC(=O)C[C@@H](O)[C@]5(C)[C@@H]4[C@@]3(C)CC[C@H]5C(=C)C)[C@@H]12 | 11.7 µM | 8.63 µM | 10.1 µM | 3.02 µM | 23.5 µM
27 | C=C(C)[C@@H]1CC[C@]2(C(=O)OCCCCCCCCCCn3ccnc3C)CC[C@]3(C)[C@H](C[C@@H](O)[C@@H]4[C@@]5(C)C(CC(=O)OC)OC(C)(C)C5CC[C@]43C)[C@@H]12 (stereo not given in full) | 19.5 µM | 10.3 µM | 7.95 µM | 4.91 µM | 19.4 µM
28 | C=C(C)[C@@H]1CC[C@]2(C(=O)OCCCn3cc(CCN)c4ccccc43)CC[C@]3(C)[C@H](C[C@H]4OC(=O)C[C@@H](O)[C@]5(C)[C@@H]4[C@@]3(C)CC[C@H]5C(=C)C)[C@@H]12 | 7.21 µM | 6.28 µM | 9.59 µM | 1.78 µM | 11.8 µM
29 | C=C(C)[C@@H]1CC[C@]2(C(=O)OCCCCCCn3ccnc3)CC[C@]3(C)[C@H](C[C@H]4OC(=O)C[C@@H](O)[C@]5(C)[C@@H]4[C@@]3(C)CC[C@H]5C(=C)C)[C@@H]12 | 24 µM | 23.2 µM | 45.3 µM | 14.5 µM | 47.1 µM
30 | C=C(C)[C@@H]1CC[C@]2(C(=O)OCCCCCCBr)CC[C@]3(C)[C@H](C[C@@H](O)[C@@H]4[C@@]5(C)C(CC(=O)OC)OC(C)(C)C5CC[C@]43C)[C@@H]12 (stereo not given in full) | 45.5 µM | 29 µM | 37.5 µM | 22.2 µM | 73 µM

Reference: ChEMBL document CHEMBL5143734, “Seco-Lupane Triterpene Derivatives Induce Ferroptosis through GPX4/ACSL4 Axis and Target Cyclin D1 to Block the Cell Cycle” (J Med Chem, 2022)
